Experimental data reported in the supplement of paper PMC10307832.

What was measured:
Experiment in all cases: relative viability (nuclei count vs DMSO), 5 days (fraction); higher = more cells survive
RAF265 = compound: Cn1c(Nc2ccc(C(F)(F)F)cc2)nc2cc(Oc3ccnc(-c4ncc(C(F)(F)F)[nH]4)c3)ccc21 [RAF265]
Procedure, shortened: (§1)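 Acceptance criteria were a control CV below 25% and at least one doubling per plate. Lung cancer cell lines in 1536-well plates got five library-drug doses (not always all listed) √10 apart by pinning and were left 5 days with no medium change. Viability divides treated-well nuclei by vehicle-well nuclei and is the median across plates. Nuclei were counted by MetaXpress from 4× Hoechst images.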

IPA-3 = compound: C1=CC=C2C(=C1)C=CC(=C2SSC3=C(C=CC4=CC=CC=C43)O)O [IPA-3]
Procedure, shortened: as §1

Doramapimod = compound: Cc1ccc(-n2nc(C(C)(C)C)cc2NC(=O)Nc2ccc(OCCN3CCOCC3)c3ccccc23)cc1 [Doramapimod]
Procedure, shortened: as §1

Cell Line: HCC-44
- relative viability (RAF265; 0.01 µM): 0.971
- relative viability (RAF265; 0.03162 µM): 0.919
- relative viability (RAF265; 0.1 µM): 1.02
- relative viability (RAF265; 0.3162 µM): 1.05
- relative viability (RAF265; 1 µM): 0.992
- relative viability (IPA-3; 0.2 µM): 0.953
- relative viability (IPA-3; 0.6325 µM): 0.922
- relative viability (IPA-3; 2 µM): 0.998
- relative viability (IPA-3; 6.325 µM): 0.899
- relative viability (IPA-3; 20 µM): 0.968
- relative viability (Doramapimod; 0.02 µM): 1.03
- relative viability (Doramapimod; 0.06325 µM): 1.1
- relative viability (Doramapimod; 0.2 µM): 1.1
- relative viability (Doramapimod; 0.6325 µM): 0.84
- relative viability (Doramapimod; 2 µM): 0.983

Cell Line: HCC-78
- relative viability (RAF265; 0.01 µM): 0.947
- relative viability (RAF265; 0.03162 µM): 1.12
- relative viability (RAF265; 0.1 µM): 1.15
- relative viability (RAF265; 0.3162 µM): 0.927
- relative viability (RAF265; 1 µM): 0.878
- relative viability (IPA-3; 0.2 µM): 1.04
- relative viability (IPA-3; 0.6325 µM): 0.907
- relative viability (IPA-3; 2 µM): 1.04
- relative viability (IPA-3; 6.325 µM): 1.04
- relative viability (IPA-3; 20 µM): 0.994
- relative viability (Doramapimod; 0.02 µM): 0.962
- relative viability (Doramapimod; 0.06325 µM): 1.07
- relative viability (Doramapimod; 0.2 µM): 1.06
- relative viability (Doramapimod; 0.6325 µM): 1.14
- relative viability (Doramapimod; 2 µM): 1.02

Cell Line: COR-L23
- relative viability (RAF265; 0.01 µM): 1.19
- relative viability (RAF265; 0.03162 µM): 0.92
- relative viability (RAF265; 0.1 µM): 0.879
- relative viability (RAF265; 0.3162 µM): 0.74
- relative viability (RAF265; 1 µM): 0.626
- relative viability (IPA-3; 0.2 µM): 1.15
- relative viability (IPA-3; 0.6325 µM): 0.912
- relative viability (IPA-3; 2 µM): 1.11
- relative viability (IPA-3; 6.325 µM): 0.923
- relative viability (IPA-3; 20 µM): 0.982
- relative viability (Doramapimod; 0.02 µM): 1.01
- relative viability (Doramapimod; 0.06325 µM): 1.08
- relative viability (Doramapimod; 0.2 µM): 0.981
- relative viability (Doramapimod; 0.6325 µM): 0.964
- relative viability (Doramapimod; 2 µM): 0.949

Cell Line: NCI-H1993
- relative viability (RAF265; 0.01 µM): 1.04
- relative viability (RAF265; 0.03162 µM): 0.94
- relative viability (RAF265; 0.1 µM): 1
- relative viability (RAF265; 0.3162 µM): 0.799
- relative viability (RAF265; 1 µM): 0.794
- relative viability (IPA-3; 0.2 µM): 0.981
- relative viability (IPA-3; 0.6325 µM): 0.99
- relative viability (IPA-3; 2 µM): 0.873
- relative viability (IPA-3; 6.325 µM): 0.97
- relative viability (IPA-3; 20 µM): 1.01
- relative viability (Doramapimod; 0.02 µM): 1.06
- relative viability (Doramapimod; 0.06325 µM): 0.941
- relative viability (Doramapimod; 0.2 µM): 0.852
- relative viability (Doramapimod; 0.6325 µM): 1.14
- relative viability (Doramapimod; 2 µM): 0.864

Cell Line: NCI-H2405
- relative viability (RAF265; 0.01 µM): 1.04
- relative viability (RAF265; 0.03162 µM): 0.976
- relative viability (RAF265; 0.1 µM): 1
- relative viability (RAF265; 0.3162 µM): 0.871
- relative viability (RAF265; 1 µM): 0.597
- relative viability (IPA-3; 0.2 µM): 1.06
- relative viability (IPA-3; 0.6325 µM): 0.994
- relative viability (IPA-3; 2 µM): 1.03
- relative viability (IPA-3; 6.325 µM): 1.02
- relative viability (IPA-3; 20 µM): 1.06
- relative viability (Doramapimod; 0.02 µM): 1.02
- relative viability (Doramapimod; 0.06325 µM): 1.03
- relative viability (Doramapimod; 0.2 µM): 0.973
- relative viability (Doramapimod; 0.6325 µM): 1.07
- relative viability (Doramapimod; 2 µM): 0.914

Cell Line: NCI-H2126
- relative viability (RAF265; 0.01 µM): 1.04
- relative viability (RAF265; 0.03162 µM): 0.949
- relative viability (RAF265; 0.1 µM): 0.951
- relative viability (RAF265; 0.3162 µM): 0.855
- relative viability (RAF265; 1 µM): 0.72
- relative viability (IPA-3; 0.2 µM): 1.07
- relative viability (IPA-3; 0.6325 µM): 0.974
- relative viability (IPA-3; 2 µM): 0.976
- relative viability (IPA-3; 6.325 µM): 0.995
- relative viability (IPA-3; 20 µM): 1.11
- relative viability (Doramapimod; 0.02 µM): 1.02
- relative viability (Doramapimod; 0.06325 µM): 1.02
- relative viability (Doramapimod; 0.2 µM): 0.973
- relative viability (Doramapimod; 0.6325 µM): 1.03
- relative viability (Doramapimod; 2 µM): 0.967

Cell Line: NCI-H1944
- relative viability (RAF265; 0.01 µM): 1.06
- relative viability (RAF265; 0.03162 µM): 1.13
- relative viability (RAF265; 0.1 µM): 0.972
- relative viability (RAF265; 0.3162 µM): 0.755
- relative viability (RAF265; 1 µM): 0.667
- relative viability (IPA-3; 0.2 µM): 1.05
- relative viability (IPA-3; 0.6325 µM): 0.897
- relative viability (IPA-3; 2 µM): 0.953
- relative viability (IPA-3; 6.325 µM): 1.11
- relative viability (IPA-3; 20 µM): 0.955
- relative viability (Doramapimod; 0.02 µM): 0.891
- relative viability (Doramapimod; 0.06325 µM): 0.994
- relative viability (Doramapimod; 0.2 µM): 0.935
- relative viability (Doramapimod; 0.6325 µM): 1.19
- relative viability (Doramapimod; 2 µM): 0.878

Cell Line: NCI-H1648
- relative viability (RAF265; 0.01 µM): 0.936
- relative viability (RAF265; 0.03162 µM): 0.842
- relative viability (RAF265; 0.1 µM): 0.919
- relative viability (RAF265; 0.3162 µM): 0.593
- relative viability (RAF265; 1 µM): 0.589
- relative viability (IPA-3; 0.2 µM): 1.25
- relative viability (IPA-3; 0.6325 µM): 0.889
- relative viability (IPA-3; 2 µM): 1.02
- relative viability (IPA-3; 6.325 µM): 0.65
- relative viability (IPA-3; 20 µM): 0.793
- relative viability (Doramapimod; 0.02 µM): 0.925
- relative viability (Doramapimod; 0.06325 µM): 1.19
- relative viability (Doramapimod; 0.2 µM): 0.898
- relative viability (Doramapimod; 0.6325 µM): 0.835
- relative viability (Doramapimod; 2 µM): 0.719

Cell Line: NCI-H358
- relative viability (RAF265; 0.01 µM): 1.03
- relative viability (RAF265; 0.03162 µM): 0.903
- relative viability (RAF265; 0.1 µM): 0.686
- relative viability (RAF265; 0.3162 µM): 0.382
- relative viability (RAF265; 1 µM): 0.262
- relative viability (IPA-3; 0.2 µM): 1.06
- relative viability (IPA-3; 0.6325 µM): 0.892
- relative viability (IPA-3; 2 µM): 0.917
- relative viability (IPA-3; 6.325 µM): 0.965
- relative viability (IPA-3; 20 µM): 0.949
- relative viability (Doramapimod; 0.02 µM): 0.873
- relative viability (Doramapimod; 0.06325 µM): 0.881
- relative viability (Doramapimod; 0.2 µM): 0.973
- relative viability (Doramapimod; 0.6325 µM): 0.923
- relative viability (Doramapimod; 2 µM): 0.88

Cell Line: NCI-H1734
- relative viability (RAF265; 0.01 µM): 1.05
- relative viability (RAF265; 0.03162 µM): 0.832
- relative viability (RAF265; 0.1 µM): 0.87
- relative viability (RAF265; 0.3162 µM): 0.738
- relative viability (RAF265; 1 µM): 0.521
- relative viability (IPA-3; 0.2 µM): 1.22
- relative viability (IPA-3; 0.6325 µM): 1
- relative viability (IPA-3; 2 µM): 0.972
- relative viability (IPA-3; 6.325 µM): 0.992
- relative viability (IPA-3; 20 µM): 0.908
- relative viability (Doramapimod; 0.02 µM): 0.949
- relative viability (Doramapimod; 0.06325 µM): 0.855
- relative viability (Doramapimod; 0.2 µM): 0.868
- relative viability (Doramapimod; 0.6325 µM): 1.02
- relative viability (Doramapimod; 2 µM): 0.769

Cell Line: A-427
- relative viability (RAF265; 0.01 µM): 1.03
- relative viability (RAF265; 0.03162 µM): 0.862
- relative viability (RAF265; 0.1 µM): 1.01
- relative viability (RAF265; 0.3162 µM): 0.575
- relative viability (RAF265; 1 µM): 0.356
- relative viability (IPA-3; 0.2 µM): 1.14
- relative viability (IPA-3; 0.6325 µM): 0.965
- relative viability (IPA-3; 2 µM): 0.976
- relative viability (IPA-3; 6.325 µM): 0.962
- relative viability (IPA-3; 20 µM): 1.11
- relative viability (Doramapimod; 0.02 µM): 0.962
- relative viability (Doramapimod; 0.06325 µM): 1.03
- relative viability (Doramapimod; 0.2 µM): 1.1
- relative viability (Doramapimod; 2 µM): 0.985

Cell Line: RERF-LC-KJ
- relative viability (RAF265; 0.01 µM): 1.03
- relative viability (RAF265; 0.03162 µM): 0.974
- relative viability (RAF265; 0.1 µM): 0.987
- relative viability (RAF265; 0.3162 µM): 0.791
- relative viability (RAF265; 1 µM): 0.715
- relative viability (IPA-3; 0.2 µM): 1.14
- relative viability (IPA-3; 0.6325 µM): 0.943
- relative viability (IPA-3; 2 µM): 0.946
- relative viability (IPA-3; 6.325 µM): 0.991
- relative viability (IPA-3; 20 µM): 1.07
- relative viability (Doramapimod; 0.02 µM): 1.09
- relative viability (Doramapimod; 0.06325 µM): 1.03
- relative viability (Doramapimod; 0.2 µM): 1.07
- relative viability (Doramapimod; 0.6325 µM): 1.02
- relative viability (Doramapimod; 2 µM): 0.999
